From patent US20080221134A1, “8-ALKYNYLXANTHINES AND DERIVATIVES” (priority 2006, published 2008)
Entries after “also recorded” stand apart in the source; their conditions may differ.

Tested on: CGS-21680 induced catalepsy
Test: Acute CGS-21680 induced catalepsy test
Assay type: in vivo, rat
Conditions: for effect on catalepsy time in acute CGS-21680 induced catalepsy model: i.p. in DMSO, 0.1-10 mg/kg
Description: Animals were administered with Reserpine or CGS-21680 according to methods known to the skilled person in the art. These models and procedures are e.g. described by Ferré S. et al., Neurosci. Let., 1991, 130, 162; Ferré S. et al., Neuroscience, 1992, 51, 501; Kafka S. H. et al., Eur. J. Pharmacol., 1996, 295, 147; Rimondini R. et al., Neuropsychopharmacology, 1997, 17, 82 and are herein incorporated by reference. In the acute CGS-21680 induced catalepsy model (CGS model) the test compounds (TC, compounds according to the present invention) and CGS-21680 (i.p. 2 mg/kg) were administered 60 minutes before the start of the catalepsy bar measurement and behavioural testing described below (see also FIG. 1). In the acute Reserpine induced catalepsy model (RES model Resperine (subcutaneously, 3 mg/kg) was injected 24 h prior to the test compound application. Catalepsy bar measurement took place 60 minutes after test compound application (see FIG. 1). Test compounds were administered i.p. in DMSO in following doses (mg/kg): 0.1, 0.3, 1, 3, 10.
Dimethylsulfoxide (DMSO) was used as vehicle for the test compounds and Reserpine. Reserpine was dissolved in DMSO in a concentration of 3 mg/ml. A 10% (w/v) Cyclodextrin solution was used as vehicle for CGS-21680. CGS 21680 was dissolved in 10% (w/v) Cyclodextrine in a concentration of 2 mg/ml.
Caffeine was used as a reference compound in the CGS-21680 induced catalepsy model. A caffeine solution was prepared with water for injection purposes to a concentration of 30 mg/ml. The solution was administered intraperitoneally in a volume of 1 ml/kg (30 mg/kg) 30 minutes before the beginning of testing and after CGS-21680 pre-treatment (1 hour prior to testing).
The catalepsy bar after CGS-21680 administration was measured (CAT) as follows: The rat was placed with its forepaws on a log of wood. […] If the animal descended faster than 1 second, the trial was regarded as invalid. If more than 20 trials were rated as invalid, the values of all uncompleted trials were noted as 0. The animal was tested until five trials had been completed and the time for each trial was noted. Only the values of the last three trials were used for the analysis. The following parameters were calculated: maximum time to descend (s) and median time to descend (s).
Behavioural observation (BO) included the measurement of the body tone, inclined plane and grip strength.
The rat is taken in the hand of the observer and the animal's body tone is rated as normal, soft or hard. The rating is performed immediately after taking the animal from its home cage before performance of catalepsy testing. The following parameters were calculated: mean occurrence of hard body tone and mean occurrence of soft body tone.
The rat is horizontally placed to an inclined plane for a maximum time of 30 seconds. Time to reach bottom or top is measured. […] The test is performed after catalepsy testing. Time to leave the inclined plane(s) was measured.
The rat is put on a grip and the observer pulls the animal back on his tail. The strength (fore paws and hind paws) by which it holds on the grid is scored as grasping and pulling, grasping without pulling or no grasping. The test is performed after the inclined plane test. The following parameters were calculated: mean score of fore paw grip strength and mean score of hind paw grip strength.
All statistical tests were performed two tailed with a value of p<0.05 considered as significant.
To assess the effects of CGS-21680 and Reserpine pre-treatment compared to vehicle treated controls statistical comparisons between the test groups were performed using a U test statistic.
To assess the effects of test compounds on CGS-21680 and Reserpine pre-treated animals correlation analyses including animals from test groups and the respective test compound-treated groups were performed. […]

[1] = vs only CGS-21680-treated animals

Structure (SMILES)	effect on catalepsy time in acute CGS-21680 induced catalepsy model	grip strength after CGS-21680 treatment [1]	hard body tone after CGS-21680 treatment [1]	maximum catalepsy values after CGS-21680 treatment [1]	median catalepsy values after CGS-21680 treatment [1]	soft body tone after CGS-21680 treatment [1]	any other parameter measured after CGS-21680 treatment (parameters other than body tone)
C#CCn1c(=O)c2c(nc(C#Cc3ccc(OC)c(OC)c3)n2C)n(CC)c1=O [test compound 1, 3-ethyl-8-(3,4-dimethoxyphenylethynyl)-7-methyl-1-prop-2-ynyl-3,7-dihydropurine-2,6-dione]	significantly reduced catalepsy time; also recorded: significant reduction of catalepsy time; also recorded: significant effects	higher amount of grip strength	significantly increased	decreased	decreased	decreased	
C#CCn1c(=O)c2c(nc(C#Cc3ccc(OC)c(OC)c3)n2C)n(CCCO)c1=O [test compound 2, 3-(3-hydroxypropyl)-8-(3,4-dimethoxyphenylethynyl)-7-methyl-1-prop-2-ynyl-3,7-dihydropurine-2,6-dione]	reduced catalepsy time; also recorded: reduction of catalepsy time; also recorded: significant effects		significantly increased			decreased	no significant effects
